Source: article PMC9757636, “The effectiveness of newly synthesized quaternary ammonium salts differing in chain length and type of counterion against priority human pathogens” (Scientific Reports, 2022)
Marks after values point to notes of the source that are not given here.

Columns and labels:
S. aureus MRSA R98 = test: MIC/MBC microdilution; format: cell-based, Staphylococcus aureus; conditions: for Minimal bactericidal concentration (*MBC): 99.9% reduction; for Minimal inhibitory concentration (MIC): 24 h, 37 °C, >90% growth inhibition
Procedure: (§1) The minimum inhibitory concentration (MIC) of the tested monomeric QAS was performed using the microdilution method according to CLSI recommendation (M27-A3). Concentrations from 10 to 1280 µM were analyzed. Strains were incubated with or without compounds (growth control) for 24 h at 37 °C. Three independent replicates were performed. The MIC value was determined spectrophotometrically and the concentration that inhibited more than 90% of growth was determined. Optical density was measured at λ = 590 nm using a 96-well microplate reader (Bio-Rad Universal Hood II).
(§2) To determine the minimum bactericidal concentration (MBC), 10 µL of bacterial suspension incubated with monomeric QAS (MIC concentration and two times higher) was transferred to plates with LB (1% tryptone, 1% yeast extract, 0.5% NaCl) medium. […] The concentration that reduced 99.9% of microbial growth was determined as MBC[54].

S. aureus ATCC 6538 = test: MIC/MBC microdilution; format: cell-based, Staphylococcus aureus; conditions: S. aureus ATCC 6538; for Minimal bactericidal concentration (*MBC): 99.9% reduction; for Minimal inhibitory concentration (MIC): 24 h, 37 °C, >90% growth inhibition
Procedure: as §1, §2

[1] = tested on: S. epidermidis B374 biofilm; test: Biofilm eradication; format: cell-based, Staphylococcus epidermidis; conditions: 160 µM, 4 h
Procedure: (§3) Biofilm eradication assay was performed according to the method of Christensen et al. with modifications. A standardized bacterial (OD = 0.6) suspension of 100 µL was spotted into a 96-well polystyrene plate. They were incubated for 24 h at 37 °C. Cultures were removed, the plate was washed and then concentrations of QAS ([…]) were added, incubated for 4 h at 37 °C with 100 rpm shaking. The wells were washed with miliQ and fixed at 60 °C for 20 min. The wells were […] with 0.1% crystal violet solution for 5 min. The wells were washed with miliQ until the unfixed dye was completely eluted. The absorbance at λ = 590 nm was measured using a reader (Bio-Rad Universal Hood II). The positive control was an untreated biofilm. Three independent test trials were performed.

S. epidermidis B374 [2] = test: MIC/MBC microdilution; format: cell-based, Staphylococcus epidermidis; conditions: S. epidermidis B374; for Minimal bactericidal concentration (*MBC): 99.9% reduction; for Minimal inhibitory concentration (MIC): 24 h, 37 °C, >90% growth inhibition
Procedure: as §1, §2

S. epidermidis SI8 = test: MIC/MBC microdilution; format: cell-based, Staphylococcus epidermidis
Procedure: as §1, §2

[3] = tested on: S. epidermidis ATCC 35984; test: MIC/MBC microdilution; format: cell-based, Staphylococcus epidermidis
Procedure: as §1, §2

[4] = Critical micelle concentration by conductometric measurements; format: physicochemical; conditions: aqueous solution, 25 °C
Procedure: Values of critical micelle concentrations (CMC) of cationic surfactants were measured conductrometrically. N5721 conductometer (Tel-Eko Projekt sp z o.o., Poland), equipped with N5981 probe, was calibrated using 0.1 M, 0.01 M and 0.001 M KCl aqueous solutions (conductivities equal to 1.287 S/m, 0.141 S/m and 0.0147 S/m, respectively) and used without temperature compensation mode (constant temperature 25 °C was kept during all calibration procedures and measurements). Values of specific conductivities of at least 15 different concentrations for each surfactant were measured and plotted versus concentration; the discontinuity point was used to determine critical micelle concentration.

S. epidermidis B374 [5] = test: Adhesion to polystyrene plate; format: cell-based, Staphylococcus epidermidis; conditions: 160 µM
Procedure: (§4) Adhesion analysis to polystyrene surfaces was determined according to the method of Rodrigues et al. with modifications. Polystyrene 96-well plates were incubated with the respective compound concentrations (10–1280 µM) for 4 h at 37 °C with 100 rpm shaking. The plates were then washed with miliQ and inoculated with 100 µL of bacterial suspension (OD = 0.4–0.6). Plates were incubated for 6 h at 37 °C with 100 rpm shaking. Wells were rinsed and fixed for 20 min at 60 °C. They were then […] with 0.1% crystal violet solution for 5 min. The wells were washed with miliQ until the unfixed dye was completely eluted. The absorbance at λ = 590 nm was measured using a reader (Bio-Rad Universal Hood II). The positive control was a surface not treated with QAS. Three independent trials were performed.

[6] = tested on: S. epidermidis ATCC 35984; test: Adhesion to stainless steel; format: cell-based, Staphylococcus epidermidis; conditions: 160 µM
[7] = tested on: Salmonella typhimurium TA98; test: Mutagenicity (Ames test); format: cell-based; conditions: for Number of colonies: ± SD
Procedure: (§5) Two reference strains of Salmonella Typhimurium TA98 and Salmonella Typhimurium TA100, deficient in histidine synthesis, were used for this study according to the method proposed by Ames et al. with modifications. […] The mixture was mixed and poured onto a Davis minimal medium plate. The mixture without the test compound was used as a negative control. The positive control was a mixture of bacterial culture, biotin-histidine solution, and sodium azide (at a concentration of 15 μg/mL for strain TA100) or acriflavine (at a concentration of 100 μg/mL for strain TA98). Plates were incubated for 48 h at 37 °C, and then colonies were counted. The mutagenicity ratio (MR), the ratio of the number of revertants grown in the presence of the test compound to the number of spontaneously occurring revertants (negative control), was calculated. A mutagenic ratio equal to or greater than 1.7 indicates the mutagenic potential of the tested compounds. The study was performed in three times.

[8] = tested on: Salmonella typhimurium TA100; test: Mutagenicity (Ames test); format: cell-based; conditions: for Number of colonies: ± SD
Procedure: as §5

[9] = tested on: S. epidermidis B374 biofilm; test: Biofilm-oriented antiseptics test (BOAT); format: cell-based, Staphylococcus epidermidis; conditions: 640 µM
Excerpt: Colonies were then counted.

[10] = tested on: P. aeruginosa PAO1 biofilm; test: Biofilm eradication; format: cell-based, Pseudomonas aeruginosa; conditions: 20 µM, 4 h
Procedure: as §3

P. aeruginosa PAO1 [11] = test: MIC/MBC microdilution; format: cell-based, Pseudomonas aeruginosa
Procedure: as §1, §2

P. aeruginosa ATCC 27853 = test: MIC/MBC microdilution; format: cell-based, Pseudomonas aeruginosa
Procedure: as §1, §2

E. coli H64 = test: MIC/MBC microdilution; format: cell-based, Escherichia coli
Procedure: as §1, §2

E. coli ATCC 11229 = test: MIC/MBC microdilution; format: cell-based, Escherichia coli; conditions: E. coli ATCC 11229; for MBC: 99.9% reduction, read-out: Minimal bactericidal concentration (*MBC); for MIC: 24 h, 37 °C, >90% growth inhibition, read-out: Minimal inhibitory concentration (MIC)
Procedure: as §1, §2

P. aeruginosa PAO1 [12] = test: Adhesion to stainless steel; format: cell-based, Pseudomonas aeruginosa
[13] = tested on: S. epidermidis ATCC 35984 biofilm; test: Biofilm eradication; format: cell-based, Staphylococcus epidermidis; conditions: 10 µM, 4 h
Procedure: as §3

[14] = tested on: S. epidermidis ATCC 35984; test: Adhesion to polystyrene plate; format: cell-based, Staphylococcus epidermidis; conditions: concentration not given
Procedure: as §4

P. aeruginosa PAO1 [15] = test: Adhesion to glass; format: cell-based, Pseudomonas aeruginosa; conditions: concentration not given
P. aeruginosa PAO1 [16] = test: Adhesion to polystyrene plate; format: cell-based, Pseudomonas aeruginosa; conditions: concentration not given
Procedure: as §4

S. epidermidis B374 [17] = test: Adhesion to stainless steel; format: cell-based, Staphylococcus epidermidis; conditions: Staphylococcus epidermidis, 1280 µM, ranges given over several strains
[18] = 24 h, 37 °C, >90% growth inhibition

CC(=O)[O-].CCCCCCCCCCCCCCCC(=O)N(C)CCC[N+](C)(C)C [AcC16]
Minimal bactericidal concentration (*MBC) (S. aureus MRSA R98): 10 *10 µM
Minimal inhibitory concentration (MIC) (S. aureus MRSA R98): 10 *10 µM
Minimal bactericidal concentration (*MBC) (S. aureus ATCC 6538): 80 *80 µM
Minimal inhibitory concentration (MIC) (S. aureus ATCC 6538): 80 *80 µM
biofilm eradication [1]: 70–80%
Minimal bactericidal concentration (*MBC) (S. epidermidis B374 [2]): 40 *40 µM
Minimal inhibitory concentration (MIC) (S. epidermidis B374 [2]): 40 *40 µM
MBC (S. epidermidis SI8; Staphylococcus epidermidis, 99.9% reduction, read-out: Minimal bactericidal concentration (*MBC)): 10 µM
MIC (S. epidermidis SI8; Staphylococcus epidermidis, 24 h, 37 °C, >90% growth inhibition, read-out: Minimal inhibitory concentration (MIC)): 10 µM
MBC ([3]; Staphylococcus epidermidis, ATCC35984, 99.9% reduction, read-out: Minimal bactericidal concentration (*MBC)): 640 µM
MIC ([3]; Staphylococcus epidermidis, ATCC35984, 24 h, 37 °C, >90% growth inhibition, read-out: Minimal inhibitory concentration (MIC)): 640 µM
CMC [4]: 0.0016 mol/L
reduction of adhesion to polystyrene (S. epidermidis B374 [5]): approximately 44%
reduction of adhesion to stainless steel [6]: approximately 93%
Mutagenicity index ([7]; ¼ MIC): 0.93
Number of colonies ([7]; ¼ MIC): 23.7 ± 4.7
Mutagenicity index ([7]; ½ MIC): 1.11
Number of colonies ([7]; ½ MIC): 28.3 ± 6.4
Mutagenicity index ([8]; ¼ MIC): 0.54
Number of colonies ([8]; ¼ MIC): 107.5 ± 2.1
Mutagenicity index ([8]; ½ MIC): 0.66
Number of colonies ([8]; ½ MIC): 132.5 ± 13.4
cell survival in biofilm (BOAT) ([9]; 30 min): 30%
cell survival in biofilm (BOAT) ([9]; 60 min): 9.5%
biofilm eradication [10]: 50–60%
MBC (P. aeruginosa PAO1 [11]; Pseudomonas aeruginosa, 99.9% reduction, read-out: Minimal bactericidal concentration (*MBC)): > 1280 µM
MIC (P. aeruginosa PAO1 [11]; Pseudomonas aeruginosa, 24 h, 37 °C, >90% growth inhibition, read-out: Minimal inhibitory concentration (MIC)): > 1280 µM
MIC (P. aeruginosa ATCC 27853; Pseudomonas aeruginosa, ATCC27853, 24 h, P. aeruginosa ATCC 27853, 24 h, 37 °C, >90% growth inhibition, read-out: Minimal inhibitory concentration (MIC)): > 1280 µM
MBC (P. aeruginosa ATCC 27853; Pseudomonas aeruginosa, ATCC27853, P. aeruginosa ATCC 27853, 99.9% reduction, read-out: Minimal bactericidal concentration (*MBC)): > 1280 µM
MIC (E. coli H64; Escherichia coli, H64, 24 h, E. coli H64, 24 h, 37 °C, >90% growth inhibition, read-out: Minimal inhibitory concentration (MIC)): 160 µM
MBC (E. coli H64; Escherichia coli, H64, E. coli H64, 99.9% reduction, read-out: Minimal bactericidal concentration (*MBC)): 320 µM
MBC (E. coli ATCC 11229): 160 µM
MIC (E. coli ATCC 11229): 80 µM
reduction of adhesion to stainless steel (P. aeruginosa PAO1 [12]; P. aeruginosa PAO1, 160 µM): 58%

CCCCCCCCCCCCCCCC(=O)N(C)CCC[N+](C)(C)C.[Br-] [BrC16]
Minimal bactericidal concentration (*MBC) (S. aureus MRSA R98): 320 *320 µM
Minimal inhibitory concentration (MIC) (S. aureus MRSA R98): 320 *320 µM
Minimal bactericidal concentration (*MBC) (S. aureus ATCC 6538): 320 *320 µM
Minimal inhibitory concentration (MIC) (S. aureus ATCC 6538): 320 *320 µM
biofilm destruction [13]: approximately 40%
Minimal bactericidal concentration (*MBC) (S. epidermidis B374 [2]): 10 *10 µM
Minimal inhibitory concentration (MIC) (S. epidermidis B374 [2]): 10 *10 µM
Minimal bactericidal concentration (*MBC) (S. epidermidis SI8; 99.9% reduction): 10 *10 µM
Minimal inhibitory concentration (MIC) (S. epidermidis SI8; [18]): 10 *10 µM
Minimal bactericidal concentration (*MBC) ([3]; 99.9% reduction): 640 *640 µM
Minimal inhibitory concentration (MIC) [3, 18]: 640 *640 µM
CMC [4]: 0.00073 mol/L
reduction of adhesion to polystyrene (S. epidermidis B374 [5]): approximately 85%
reduction of adhesion to polystyrene [14]: did not reduce the adhesion
reduction of adhesion to glass (P. aeruginosa PAO1 [15]): approximately 20%
reduction of adhesion to stainless steel [6]: 77%
reduction of adhesion to polystyrene (P. aeruginosa PAO1 [16]): did not reduce the adhesion
mutagenicity index (MR) ([7]; reading frame shift type mutation, MR >= 1.7 indicates mutagenic potential): above 1.7
Mutagenicity index ([7]; ¼ MIC): 2.76
Number of colonies ([7]; ¼ MIC): 70.5 ± 12
Mutagenicity index ([7]; ½ MIC): 1.84
Number of colonies ([7]; ½ MIC): 47 ± 14.1
mutagenicity index (MR) ([8]; base pair substitution type mutations, MR >= 1.7 indicates mutagenic potential): < 1.7
Number of colonies ([8]; ¼ MIC): 151.3 ± 3.5
Mutagenicity index ([8]; ½ MIC): 1.06
Number of colonies ([8]; ½ MIC): 134 ± 1
inhibition at 1280 µM (S. epidermidis B374 [17]): 17 to 22%
biofilm eradication [10]: 50–60%
Minimal bactericidal concentration (*MBC) (P. aeruginosa PAO1 [11]; 99.9% reduction): > 1280 * > 1280 µM
Minimal inhibitory concentration (MIC) (P. aeruginosa PAO1 [11]; [18]): > 1280 * > 1280 µM
Minimal bactericidal concentration (*MBC) (P. aeruginosa ATCC 27853; P. aeruginosa ATCC 27853, 99.9% reduction): > 1280 * > 1280 µM
Minimal inhibitory concentration (MIC) (P. aeruginosa ATCC 27853; P. aeruginosa ATCC 27853, 24 h, 37 °C, >90% growth inhibition): > 1280 * > 1280 µM
Minimal bactericidal concentration (*MBC) (E. coli H64; E. coli H64, 99.9% reduction): 160 *160 µM
Minimal inhibitory concentration (MIC) (E. coli H64; E. coli H64, 24 h, 37 °C, >90% growth inhibition): 160 *160 µM
MBC (E. coli ATCC 11229): 1280 µM
MIC (E. coli ATCC 11229): 640 µM
inhibition at 1280 µM (P. aeruginosa PAO1 [12]; Pseudomonas aeruginosa, PAO1, read-out: inhibition of adhesion to stainless steel): 17 to 22%
